From patent US20150105252A1, “SUBSTITUTED PYRAZOLES AS HERBICIDES” (E I DU PONT DE NEMOURS AND COMPANY, priority 2013, published 2015)

Tests used:
pigweed [1] = assay: Test A postemergence; format: in vivo, Amaranthus retroflexus
Procedure, shortened: (§1)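 Pre- and postemergence greenhouse test; loam+sand; cpd in non-phytotox. solvent/surfactant; post at 1–2 leaf, 2–10 cm; visual score ~10 d, 0 = none, 100 = complete control.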

rice = assay: Test B flood; format: in vivo, Oryza sativa; details: 250 g ai/ha, visual rating on 0 to 100 scale (0 no effect, 100 complete control), 13 to 15 days
Procedure, shortened: (§2)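 Response scored visually, 0–100 relative to controls, 13–15 days after the compound was applied into paddy water; plants were at the 2-leaf stage in pots kept flooded to 3 cm.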

sedge, umbrella = assay: Test B flood; format: in vivo, Cyperus difformis; details: 250 g ai/ha, visual rating on 0 to 100 scale (0 no effect, 100 complete control), 13 to 15 days
Procedure, shortened: as §2

barnyardgrass [2] = assay: Test A preemergence; format: in vivo, Echinochloa crus-galli; details: for Barnyardgrass plant response rating (0 to 100 scale, 0 is no effect, 100 is complete control): visual injury approx. 10 days after treatment
Procedure, shortened: as §1

corn [3] = assay: Test A postemergence; format: in vivo, Zea mays
Procedure, shortened: as §1

morningglory [4] = assay: Test A preemergence; format: in vivo, Ipomoea spp.; details: for Morningglory plant response rating (0 to 100 scale): visual injury approx. 10 days after treatment
Procedure, shortened: as §1

barnyardgrass [5] = assay: Test A postemergence; format: in vivo, Echinochloa crus-galli
Procedure, shortened: as §1

pigweed [6] = assay: Test A preemergence; format: in vivo, Amaranthus retroflexus; details: for Pigweed plant response rating (0 to 100 scale): visual injury approx. 10 days after treatment
Procedure, shortened: as §1

wheat [7] = assay: Test A preemergence; format: in vivo, Triticum aestivum; details: preemergence; for Wheat plant response rating (0 to 100 scale): visual injury approx. 10 days after treatment
Procedure, shortened: as §1

wheat [8] = assay: Test A postemergence; format: in vivo, Triticum aestivum
Procedure, shortened: as §1

barnyardgrass [9] = assay: Test B flood; format: in vivo, Echinochloa crus-galli; details: 250 g ai/ha, visual rating on 0 to 100 scale (0 no effect, 100 complete control), 13 to 15 days
Procedure, shortened: as §2

crabgrass, large [10] = assay: Test A postemergence; format: in vivo, Digitaria sanguinalis
Procedure, shortened: as §1

ducksalad = assay: Test B flood; format: in vivo, Heteranthera limosa; details: 250 g ai/ha, visual rating on 0 to 100 scale (0 no effect, 100 complete control), 13 to 15 days
Procedure, shortened: as §2

crabgrass, large [11] = assay: Test A preemergence; format: in vivo, Digitaria sanguinalis; details: for Crabgrass, Large plant response rating (0 to 100 scale): visual injury approx. 10 days after treatment
Procedure, shortened: as §1

velvetleaf [12] = assay: Test A preemergence; format: in vivo, Abutilon theophrasti; details: for Velvetleaf plant response rating (0 to 100 scale): visual injury approx. 10 days after treatment
Procedure, shortened: as §1

foxtail, giant [13] = assay: Test A preemergence; format: in vivo, Setaria faberii; details: for Foxtail, Giant plant response rating (0 to 100 scale): visual injury approx. 10 days after treatment
Procedure, shortened: as §1

velvetleaf [14] = assay: Test A postemergence; format: in vivo, Abutilon theophrasti
Procedure, shortened: as §1

corn [15] = assay: Test A preemergence; format: in vivo, Zea mays; details: for Corn plant response rating (0 to 100 scale): visual injury approx. 10 days after treatment
Procedure, shortened: as §1

morningglory [16] = assay: Test A postemergence; format: in vivo, Ipomoea spp.
Procedure, shortened: as §1

foxtail, giant [17] = assay: Test A postemergence; format: in vivo, Setaria faberii
Procedure, shortened: as §1

[18] = Postemergence, 125 g ai/ha, 0 to 100 scale, 0 no effect, 100 complete control
[19] = Postemergence, 500 g ai/ha, 0 to 100 scale (0 no effect, 100 complete control)
[20] = preemergence, 500 g ai/ha, visual injury after approx. 10 days, 0 to 100 scale (0 no effect, 100 complete control)
[21] = postemergence, 125 g ai/ha, about 10 days, visual rating on 0 to 100 scale (0 no effect, 100 complete control)
[22] = preemergence, 125 g ai/ha, visual injury, 0 to 100 scale, approx. 10 days
[23] = 500 g ai/ha, visual injury after approx. 10 days, 0 to 100 scale (0 no effect, 100 complete control)
[24] = Postemergence, 500 g ai/ha, visual rating after approx. 10 days, 0 to 100 scale (0 no effect, 100 complete control)
[25] = Preemergence, 500 g ai/ha, 0 to 100 scale, 0 no effect, 100 complete control

CCCNC(=O)c1cc(CC)n(Cc2cc(C(F)(F)C(F)(F)F)nn2C)n1 [Compound 229]
Pigweed plant response rating (pigweed [1]; [18]): 90
Pigweed plant response rating (pigweed [1]; [19]): 100
Plant response rating, Rice (rice): 40
Plant response rating, Sedge, Umbrella (sedge, umbrella): 95
Barnyardgrass plant response rating (0 to 100 scale, 0 is no effect, 100 is complete control) (barnyardgrass [2]; preemergence, 125 g ai/ha): 50
Barnyardgrass plant response rating (barnyardgrass [2]; [20]): 100
Corn plant response rating (corn [3]; [18]): 40
Corn plant response rating (corn [3]; [19]): 70
Morningglory plant response rating (0 to 100 scale) (morningglory [4]; preemergence, 125 g ai/ha): 50
Barnyardgrass plant response rating (barnyardgrass [5]; [18]): 50
Barnyardgrass plant response rating (barnyardgrass [5]; [19]): 90
Pigweed plant response rating (0 to 100 scale) (pigweed [6]; preemergence, 125 g ai/ha): 100
Wheat plant response rating (0 to 100 scale) (wheat [7]; 125 g ai/ha): 20
Wheat plant response rating (wheat [8]; [18]): 40
Wheat plant response rating (wheat [8]; [19]): 70
Plant response rating, Barnyardgrass (barnyardgrass [9]): 60
Crabgrass, Large plant response rating (crabgrass, large [10]; [18]): 50
Crabgrass, Large plant response rating (crabgrass, large [10]; [19]): 90
Plant response rating, Ducksalad (ducksalad): 100
Crabgrass, Large plant response rating (0 to 100 scale) (crabgrass, large [11]; preemergence, 125 g ai/ha): 100
Crabgrass, Large plant response rating (crabgrass, large [11]; [20]): 100
Velvetleaf plant response rating (0 to 100 scale) (velvetleaf [12]; preemergence, 125 g ai/ha): 40
Foxtail, Giant plant response rating (0 to 100 scale) (foxtail, giant [13]; preemergence, 125 g ai/ha): 90
Foxtail, Giant plant response rating (foxtail, giant [13]; [20]): 100
Velvetleaf plant response rating (velvetleaf [14]; [18]): 50
Velvetleaf plant response rating (velvetleaf [14]; [19]): 80
Corn plant response rating (0 to 100 scale) (corn [15]; preemergence, 125 g ai/ha): 10
Corn plant response rating (corn [15]; [20]): 50
Morningglory plant response rating (morningglory [16]; [18]): 70
Morningglory plant response rating (morningglory [16]; [19]): 100
Foxtail, Giant plant response rating (foxtail, giant [17]; [18]): 60
Foxtail, Giant plant response rating (foxtail, giant [17]; [19]): 90

CCc1cc(C(=O)NCC(F)(F)F)nn1Cc1cc(C(F)(F)C(F)(F)F)nn1C [Compound 227]
Pigweed plant response rating (pigweed [1]; [18]): 100
Pigweed plant response rating (pigweed [1]; [19]): 100
Plant response rating, Rice (rice): 0
Plant response rating, Sedge, Umbrella (sedge, umbrella): 95
Barnyardgrass plant response rating (0 to 100 scale, 0 is no effect, 100 is complete control) (barnyardgrass [2]; preemergence, 125 g ai/ha): 40
Barnyardgrass plant response rating (barnyardgrass [2]; [20]): 100
Corn plant response rating (corn [3]; [18]): 30
Corn plant response rating (corn [3]; [19]): 70
Morningglory plant response rating (0 to 100 scale) (morningglory [4]; preemergence, 125 g ai/ha): 10
Barnyardgrass plant response rating (barnyardgrass [5]; [18]): 40
Barnyardgrass plant response rating (barnyardgrass [5]; [19]): 80
Pigweed plant response rating (0 to 100 scale) (pigweed [6]; preemergence, 125 g ai/ha): 90
Wheat plant response rating (0 to 100 scale) (wheat [7]; 125 g ai/ha): 10
Wheat plant response rating (wheat [8]; [18]): 20
Wheat plant response rating (wheat [8]; [19]): 70
Plant response rating, Barnyardgrass (barnyardgrass [9]): 80
Crabgrass, Large plant response rating (crabgrass, large [10]; [18]): 60
Crabgrass, Large plant response rating (crabgrass, large [10]; [19]): 90
Plant response rating, Ducksalad (ducksalad): 100
Crabgrass, Large plant response rating (0 to 100 scale) (crabgrass, large [11]; preemergence, 125 g ai/ha): 100
Crabgrass, Large plant response rating (crabgrass, large [11]; [20]): 100
Velvetleaf plant response rating (0 to 100 scale) (velvetleaf [12]; preemergence, 125 g ai/ha): 30
Foxtail, Giant plant response rating (0 to 100 scale) (foxtail, giant [13]; preemergence, 125 g ai/ha): 70
Foxtail, Giant plant response rating (foxtail, giant [13]; [20]): 100
Velvetleaf plant response rating (velvetleaf [14]; [18]): 40
Velvetleaf plant response rating (velvetleaf [14]; [19]): 100
Corn plant response rating (0 to 100 scale) (corn [15]; preemergence, 125 g ai/ha): 0
Corn plant response rating (corn [15]; [20]): 50
Morningglory plant response rating (morningglory [16]; [18]): 70
Morningglory plant response rating (morningglory [16]; [19]): 100
Foxtail, Giant plant response rating (foxtail, giant [17]; [18]): 70
Foxtail, Giant plant response rating (foxtail, giant [17]; [19]): 90

CCCCNC(=O)c1cc(Br)n(Cc2cccc(C(F)(F)F)c2)n1 [Compound 162]
Pigweed plant response rating (pigweed [1]; [19]): 60
Pigweed plant response rating (pigweed [1]; [21]): 40
Plant response rating, Rice (rice): 0
Plant response rating, Sedge, Umbrella (sedge, umbrella): 0
Barnyardgrass plant response rating (barnyardgrass [2]; [22]): 0
Barnyardgrass plant response rating (barnyardgrass [2]; [20]): 0
Corn plant response rating (corn [3]; [19]): 20
Corn plant response rating (corn [3]; [21]): 10
Morningglory plant response rating (0 to 100 scale) (morningglory [4]; preemergence, 125 g ai/ha): 0
Morningglory plant response rating (morningglory [4]; [20]): 0
Barnyardgrass plant response rating (barnyardgrass [5]; [19]): 20
Barnyardgrass plant response rating (barnyardgrass [5]; [21]): 0
Pigweed plant response rating (0 to 100 scale) (pigweed [6]; preemergence, 125 g ai/ha): 0
Pigweed plant response rating (pigweed [6]; [20]): 0
Wheat plant response rating (0 to 100 scale) (wheat [7]; 125 g ai/ha): 0
Wheat plant response rating (wheat [7]; [23]): 0
Wheat plant response rating (wheat [8]; [19]): 0
Wheat plant response rating (wheat [8]; [21]): 0
Plant response rating, Barnyardgrass (barnyardgrass [9]): 0
Crabgrass, Large plant response rating (crabgrass, large [10]; [19]): 20
Crabgrass, Large plant response rating (crabgrass, large [10]; [21]): 10
Plant response rating, Ducksalad (ducksalad): 0
Crabgrass, Large plant response rating (0 to 100 scale) (crabgrass, large [11]; preemergence, 125 g ai/ha): 0
Crabgrass, Large plant response rating (crabgrass, large [11]; [20]): 30
Velvetleaf plant response rating (0 to 100 scale) (velvetleaf [12]; preemergence, 125 g ai/ha): 0
Velvetleaf plant response rating (velvetleaf [12]; [20]): 0
Foxtail, Giant plant response rating (0 to 100 scale) (foxtail, giant [13]; preemergence, 125 g ai/ha): 0
Foxtail, Giant plant response rating (foxtail, giant [13]; [20]): 60
Velvetleaf plant response rating (velvetleaf [14]; [19]): 40
Velvetleaf plant response rating (velvetleaf [14]; [21]): 0
Corn plant response rating (0 to 100 scale) (corn [15]; preemergence, 125 g ai/ha): 0
Corn plant response rating (corn [15]; [20]): 0
Morningglory plant response rating (morningglory [16]; [19]): 40
Morningglory plant response rating (morningglory [16]; [21]): 20
Foxtail, Giant plant response rating (foxtail, giant [17]; [19]): 20
Foxtail, Giant plant response rating (foxtail, giant [17]; [21]): 10

CCCCNC(=O)c1cc(C)n(Oc2ccnc(C(F)(F)F)c2)n1 [Compound 85]
Pigweed plant response rating (pigweed [1]; [24]): 10
Pigweed plant response rating (pigweed [1]; [21]): 0
Plant response rating, Rice (rice): 0
Plant response rating, Sedge, Umbrella (sedge, umbrella): 0
Barnyardgrass plant response rating (barnyardgrass [2]; [25]): 30
Barnyardgrass plant response rating (barnyardgrass [2]; [22]): 0
Corn plant response rating (corn [3]; [24]): 10
Corn plant response rating (corn [3]; [21]): 0
Morningglory plant response rating (morningglory [4]; [25]): 10
Morningglory plant response rating (morningglory [4]; [22]): 0
Barnyardgrass plant response rating (barnyardgrass [5]; [18]): 0
Barnyardgrass plant response rating (barnyardgrass [5]; [24]): 10
Pigweed plant response rating (pigweed [6]; [25]): 0
Pigweed plant response rating (pigweed [6]; [22]): 0
Wheat plant response rating (wheat [7]; 125 g ai/ha, visual injury, 0 to 100 scale, approx. 10 days): 0
Wheat plant response rating (wheat [7]; [23]): 0
Wheat plant response rating (wheat [8]; [24]): 0
Wheat plant response rating (wheat [8]; [21]): 0
Plant response rating, Barnyardgrass (barnyardgrass [9]): 0
Crabgrass, Large plant response rating (crabgrass, large [10]; [24]): 20
Crabgrass, Large plant response rating (crabgrass, large [10]; [21]): 10
Plant response rating, Ducksalad (ducksalad): 0
Crabgrass, Large plant response rating (crabgrass, large [11]; [25]): 80
Crabgrass, Large plant response rating (crabgrass, large [11]; [22]): 20
Velvetleaf plant response rating (velvetleaf [12]; [25]): 0
Velvetleaf plant response rating (velvetleaf [12]; [22]): 0
Foxtail, Giant plant response rating (foxtail, giant [13]; [25]): 50
Foxtail, Giant plant response rating (foxtail, giant [13]; [22]): 0
Velvetleaf plant response rating (velvetleaf [14]; [24]): 10
Velvetleaf plant response rating (velvetleaf [14]; [21]): 0
Corn plant response rating (corn [15]; [25]): 0
Corn plant response rating (corn [15]; [22]): 0
Morningglory plant response rating (morningglory [16]; [24]): 40
Morningglory plant response rating (morningglory [16]; [21]): 10
Foxtail, Giant plant response rating (foxtail, giant [17]; [24]): 20
Foxtail, Giant plant response rating (foxtail, giant [17]; [21]): 0
